Reference: patent publication US20250143289A1, “BIO-CONTROL COMBINATIONS, COMPOSITIONS AND METHOD OF USE” (DECCO WORLDWIDE POST-HARVEST HOLDINGS B.V., priority 2022, published 2025)

System: Penicillium digitatum (Pd)
Assay: Biocontrol efficacy on post-harvest green mold decay of harvested oranges (online spraying, drying tunnel, storage)
Assay type: in vivo
Conditions: online spraying at 2 L/tonne of fruits, dried in drying tunnel, observed 36 days after storage, amounts per treatment as in Table 1
Method: A tank mix bio-control combination was prepared consisting of Candida oleophila strain O and sodium bicarbonate. […] The microbial component was applied as water dispersible granules. The concentration of C. oleophila strain O was 2.33 g/L (0.23% w/v) and the biologically effective amount of the strain was 3×10^10 cfu/gm. The concentration of the C. oleophila strain O used was varying between 0.1 to 5% w/v of the combination.
The biocontrol efficacy of the combination of the present invention on post-harvest fungal disease caused by green mold was evaluated. […] The harvested oranges were treated with the biocontrol combination and then subjected to drying in a drying tunnel. […] The oranges were treated by online spraying of each treatment. The biologically effective amount of Candida oleophila is 3×10^10 cfu/g of the combination. Each application is made at a rate 2 L/tonne of citrus fruits. The observations were made on the treated oranges and the untreated control at 36 days after storage.

O=C([O-])O.[Na+] [Sodium bicarbonate]
% decay on fruits: 15%
